Data published in patent publication US20040043918A1, “Apoptosis inducers, caspase cascade activators and anticancer agent” (KIMIGAFUCHI GAKUEN, priority 2000, published 2004).
Values belong to the compound of their own block, whether it stands above or below them.

Columns and labels:
Format in all cases: cell-based
[1] = system: human promyelocytes of leukemia (HL-60); assay: Caspase-9 inhibition experiment using a flow cytometer (DNA fragmentation, PI dyeing)
Description: The following experiment was performed using the reagents prepared in section 1-1. First of all, multiple samples were prepared in stages wherein 0 to 120 μl of caspase-9 inhibitor was added to 12 ml of a suspension ([…]) of human promyelocytes of leukemia (HL-60, purchased from Riken Cell Bank). Then, the mixture were incubated for 90 minutes, 2 ml of liposome solution comprising dimyristoyl phosphatidylcholine was each added to the samples. Subsequently, each of the samples were incubated for three hours. After washing each sample with 2 ml of −PBS, 5 ml of 70% ethanol was added to each sample, and each sample was left at freezing temperature for one hour so as to be subjected to tissue-fixing. Furthermore, following washing each sample with 2 ml of −PSB, 6 ml of RNase solution was added to each sample, and subsequently, each sample was incubated for 30 minutes. Next, following adding 670 μl of PI solution, each sample was shielded from light with aluminum foil, and was left in a dark place at freezing temperature for 30 minutes, and was subjected to PI dyeing. After PI dyeing, each sample was subjected to centrifugal separation at 2000 rpm for five minutes. After removal of supernatant, and the precipitation formed was suspended in 500 μl of −PBS so as to measure DNA content using a flow cytometer (product name, COULTER EPICS-XL). Inhibition effects were evaluated by the ratios of the DNA fragmentation percentage of the control (wherein no caspase-9 inhibitor was added, and only a liposome solution comprising dimyristoyl phosphatidylcholine was added) to the DNA fragmentation percentages of the samples wherein caspase-9 inhibitor was added in stages.

[2] = system: human promyelocytes of leukemia (HL-60); assay: Procaspase-3 catabolic enzyme inhibition experiment using a flow cytometer; settings: inhibitor preincubated, then DMPC liposome solution, FIG. 4
[3] = system: human promyelocytes of leukemia (HL-60); assay: Caspase-1,4 inhibition experiment using a flow cytometer; settings: inhibitor preincubated, then DMPC liposome solution, FIG. 5
[4] = control without caspase-9 inhibitor, only DMPC liposome solution, three hours

DNA fragmentation of human promyelocytes of leukemia [1, 4]: clearly observed
Compound: CCCCCCCCCCCCCC(=O)OC[C@H](COP(=O)([O-])OCC[N+](C)(C)C)OC(=O)CCCCCCCCCCCCC [dimyristoyl phosphatidylcholine, 1,2-dimyristoyl-sn-glycero-3-phosphocholine]
apoptosis induction [1, 4]: apoptosis was induced

Compound: Ac—L-Ile-L-Glu-L-Thr-L-Asp-H [procaspase-3 catabolic enzyme inhibitor]
DNA fragmentation percentage with procaspase-3 catabolic enzyme inhibitor added in stages [2]: decreased approximately depending upon the concentration

Compound: Ac—L-Leu-L-Glu-L-His-L-Asp-H [caspase-9 inhibitor]
DNA fragmentation percentage with caspase-9 inhibitor added in stages ([1]; 0 to 120 μl inhibitor preincubated 90 minutes, then DMPC liposome solution for three hours, FIG. 3): decreased approximately depending upon the concentration

Compound: Ac—L-Tyr-L-Val-L-Ala-L-Asp-H [caspase-1,4 inhibitor]
DNA fragmentation percentage with caspase-1,4 inhibitor added in stages [3]: decreased approximately depending upon the concentration
